Values quoted from earlier work as cited in patent US6375930B2, “Membrane incorporation of texaphyrins” (Board of Regents, The University of Texas System, priority 1996, dated 2002).

Assays:
[1] = Levy, Semin. Oncol. 1994
[2] = require hydrophobic vehicles for administration

For porfimer sodium, the “duration of cutaneous photosensitivity” value [1] is given as “up to 6 weeks”.
For “benzoporphyrin derivative [BPD verteporfin]”, the “solubility in aqueous solutions” value [2] is listed as “insoluble” and the “duration of cutaneous photosensitivity” value [1] is listed as “a few days”.
In the case of tin purpurin, the “solubility in aqueous solutions” value [2] is given as “insoluble”.
